Results: US8604029B2, “2-[(2-substituted)-indolizin-3-yl]-2-oxo-acetamide derivatives as antifungal agents” (F2G Ltd British Body Corporate, priority 2006, dated 2013)

Test system: Aspergillus fumigatus
Assay: MIC measurement, YAG medium
Assay type: cell-based
Details: Aspergillus fumigatus; YAG medium; MIC banded into grades; strain AF293; read-out: MIC A. fumigatus
Protocol: Between 1 and 5 mgs of compound were accurately weighed out into a sterile Eppendorf tube. The compound was dissolved in DMSO to give a solution containing […]. Tubes were stored at −20° C. until required.
On the day of testing thawed solutions were vortex mixed to ensure homogeneity. 30 μL of solution was removed and added to 570 μL of sterile water in a separate sterile Eppendorf. The thoroughly mixed solution was used to prepare a series of doubling dilutions in water, in a deep well plate. Thirteen replicate plates were prepared using a Minitrak by aspirating 20 μL from each well into eleven clear polystyrene 96 well plates.
Spores of Aspergillus spp. (Aspergillus fumigatus [two strains], Aspergillus terreus [two strains], Aspergillus niger and Aspergillus flavus) were harvested from cultures grown on Sabarauds agar for 5 days, and resuspended in PBS/Tween 80 to approx 1×10^7 cfu/mL. Other filamentous fungi (Absidia corymbifera, Fusarium solani, Rhizomucor, Scedosporium spp., Trichophyton spp.), were grown on Sabarauds agar for 2-10 days and spores/hyphae resuspended in PBS/Tween to give approx 1×10^7 cfu/mL. Candida species (Candida albicans, Candida glabrata, Candida krusei, Candida parapsilosis and Candida tropicalis) were grown on Sabarauds agar, cells were harvested from the agar using a sterile loop and resuspended in PBS/Tween 80 to approx 1×10^6 cfu/mL. Each organism suspension was diluted in RPMI medium, containing 2% glucose and 0.135 M MOPS buffer (pH 7.0) to 0.5-2×10^4 cfu/mL for Aspergillus spp. and other filamentous fungi and 0.5-2×10^3 cfu/mL for yeast. 80 μL of an organism suspension was added to each well of the plate containing drug dilutions.
This produced MIC plates with a drug range 50-0.05 mg/L and organism inocula of 1-2×10^4 cfu/mL for Aspergillus spp. and other filamentous fungi and 1-2×10^3 cfu/mL for yeasts. All plates were incubated for 24-48 hrs at 35° C. Growth was assessed by monitoring the optical density at 485 nm for each well. The MIC of a compound is the lowest drug concentration that inhibits growth of an organism by >80% compared with a drug free control. MICs are recorded as mg/L. Other growth media can be used for susceptibility testing, and the activity of the described compounds can also be assessed in a medium comprising 1% glucose, 1% ammonium chloride and 0.5% yeast extract (YAG medium). To perform MIC tests in this medium, dilutions of compounds are prepared in microtitre plates as described above. Fungal strains to be tested are grown and harvested in an identical manner to that described above, each organism suspension is then diluted in YAG medium to 0.5-2×10^4 cfu/mL for Aspergillus spp. and other filamentous fungi and 0.5-2×10^3 cfu/mL for yeast. 80 μL of an organism suspension was added to each well of the plate containing drug dilutions. This produced MIC plates with a drug range 50-0.05 mg/L and organism inocula of 1-2×10^4 cfu/mL for Aspergillus spp. and other filamentous fungi and 1-2×10^3 cfu/mL for yeasts. All plates were incubated for 24 hrs at 35° C. Growth was assessed by monitoring the optical density at 485 nm for each well. The MIC of a compound is the lowest drug concentration that inhibits growth of an organism by >70% compared with a drug free control. MICs are recorded as mg/L. In cases where the MIC of an organism is […] mg/L the MIC is repeated using a concentration range of 0.5-0.0005 mg/L. MIC tests in YAG medium have more clear-cut endpoints and have slightly lower MICs than those performed in RPMI medium.
The following organisms were tested: Absidia corymbifera, Aspergillus flavus, Aspergillus fumigatus AF293 and AF210, Aspergillus niger, Aspergillus terreus AT4 and AT49, Candida albicans, Candida glabrata, Candida krusei, Candida parapsilosis, Candida tropicalis, Fusarium solani, Rhizomucor sp., Scedosporium apiospermum, Scedosporium prolificans, Trichophyton mentagrophytes, and Trichophyton rubrum.

MIC	Structure (SMILES)
< 1 µg/mL	Cc1cccc(N2CCN(c3ccc(NC(=O)C(=O)c4c(-c5ccccc5)cc5ccccn45)cc3)CC2)n1 [Example 43, N-{4-[4-(6-Methyl-pyridin-2-yl)-piperazin-1-yl]-phenyl}-2-oxo-2-(2-phenyl-indolizin-3-yl)-acetainide]
< 1 µg/mL	Cc1cc(C)nc(N2CCN(c3ccc(NC(=O)C(=O)c4c(-c5ccccc5)cc5ccccn45)cc3)CC2)n1 [Example 44, N-{4-[4-(4,6-Dimethyl-pyrimidin-2-yl)-piperazin-1-yl]-phenyl}-2-oxo-2-(2-phenyl-indolizin-3-yl)-acetamide]
< 1 µg/mL	C=C1CCN(c2ccc(NC(=O)C(=O)c3c(-c4cccnc4C)cc4ccccn34)cc2)CC1 [Example 46, N-[4-(4-Methylene-piperidin-1-yl)-phenyl]-2-[2-(2-methyl-pyridin-3-yl)-indolizin-3-yl]-2-oxo-acetamide]
< 1 µg/mL	Cc1cc(C)nc(N2CCN(c3ccc(NC(=O)C(=O)c4c(C5CCCC5)cc5ccccn45)cc3)CC2)c1 [Example 47, 2-(2-Cyclopentyl-indolizin-3-yl)-N-{4-[4-(4,6-dimethyl-pyridin-2-yl)-piperazin-1-yl]-phenyl}-2-oxo-acetamide]
< 1 µg/mL	Cc1cc(C)nc(N2CCN(c3cccc(NC(=O)C(=O)c4c(-c5ccccc5)cc5ccccn45)c3)CC2)c1 [Example 48, N-{3-[4-(4,6-Dimethyl-pyridin-2-yl)-piperazin-1-yl]-phenyl}-2-oxo-2-(2-phenyl-indolizin-3-yl)-acetamide]
< 1 µg/mL	Cc1ccnc(N2CCN(c3ccc(NC(=O)C(=O)c4c(-c5ccccc5)cc5ccccn45)cc3)CC2)c1 [Example 49, N-{4-[4-(4-Methyl-pyridin-2-yl)-piperazin-1-yl]-phenyl}-2-oxo-2-(2-phenyl-indolizin-3-yl)-acetamide]
< 1 µg/mL	CC(C)(C)CN1CCN(c2ccc(NC(=O)C(=O)c3c(-c4ccccc4)cc4ccccn34)nc2)CC1 [Example 50, N-{5-[4-(2,2-Dimethyl-propyl)-piperazin-1-yl]-pyridin-2-yl}-2-oxo-2-(2-phenyl-indolizin-3-yl)-acetamide]
< 1 µg/mL	O=C(Nc1ccc(N2CCN(S(=O)(=O)c3cccnc3)CC2)cc1)C(=O)c1c(-c2ccccc2)cc2ccccn12 [Example 51, 2-Oxo-2-(2-phenyl-indolizin-3-yl)-N-{4-[4-(pyridine-3-sulfonyl)-piperazin-1-yl]-phenyl}-acetamide]
> 10 µg/mL	Cc1cc(N2CCN(c3ccc(NC(=O)C(=O)c4c(-c5ccccc5)cc5ccccn45)cc3)CC2)cc(C)n1 [Example 52, N-{4-[4-(2,6-Dimethyl-pyridin-4-yl)-piperazin-1-yl]-phenyl}-2-oxo-2-(2-phenyl-indolizin-3-yl)-acetamide]
< 1 µg/mL	Cc1cc(C)nc(N2CCCN(c3ccc(NC(=O)C(=O)c4c(-c5ccccc5)cc5ccccn45)cc3)CC2)c1 [Example 54, N-{4-[4-(4,6-Dimethyl-pyridin-2-yl)-[1,4]diazepan-1-yl]-phenyl}-2-oxo-2-(2-phenyl-indolizin-3-yl)-acetamide]
< 1 µg/mL	Cc1cc(C)nc(N(C)CCN(C)c2ccc(NC(=O)C(=O)c3c(-c4ccccc4)cc4ccccn34)cc2)c1 [Example 55, N-[4-({2-[(4,6-Dimethyl-pyridin-2-yl)-methyl-amino]-ethyl}-methyl-amino)-phenyl]-2-oxo-2-(2-phenyl-indolizin-3-yl)-acetamide]
< 1 µg/mL	O=C(Nc1ccc(N2CCN(c3ccc(CN4CCOCC4)cc3)CC2)cc1)C(=O)c1c(-c2ccccc2)cc2ccccn12 [Example 56, N-{4-[4-(4-Morpholin-4-ylmethyl-phenyl)-piperazin-1-yl]-phenyl}-2-oxo-2-(2-phenyl-indolizin-3-yl)-acetamide]
< 1 µg/mL	COCCOc1cc(C)nc(N2CCN(c3ccc(NC(=O)C(=O)c4c(-c5ccccc5)cc5ccccn45)cc3)CC2)c1 [Example 57, N-(4-{4-[4-(2-Methoxy-ethoxy)-6-methyl-pyridin-2-yl]-piperazin-1-yl}-phenyl)-2-oxo-2-(2-phenyl-indolizin-3-yl)-acetamide]
< 1 µg/mL	Cc1cc(C)nc(N2CCN(c3ccc(NC(=O)C(=O)c4c(C5CC5)cc5ccccn45)cc3)CC2)c1 [Example 58, 2-(2-Cyclopropyl-indolizin-3-yl)-N-{4-[4-(4,6-dimethyl-pyridin-2-yl)-piperazin-1-yl]-phenyl}-2-oxo-acetamide]
< 1 µg/mL	O=C(Nc1ccc(N2CCN(c3cccnc3)CC2)cc1)C(=O)c1c(-c2ccccc2)cc2ccccn12 [Example 59, 2-Oxo-2-(2-phenyl-indolizin-3-yl)-N-[4-(4-pyridin-3-yl-piperazin-1-yl)-phenyl]-acetamide]
< 1 µg/mL	Cc1cc(C)nc(N2CCN(c3ccc(NC(=O)C(=O)c4c(C5CCCCC5)cc5ccccn45)cc3)CC2)c1 [Example 60, 2-(2-Cyclohexyl-indolizin-3-yl)-N-{4-[4-(4,6-dimethyl-pyridin-2-yl)-piperazin-1-yl]-phenyl}-2-oxo-acetamide]
< 1 µg/mL	Cc1cc(C)nc(N2CCN(c3ccc(NC(=O)C(=O)c4c(C(C)C)cc5ccccn45)cc3)CC2)c1 [Example 61, N-{4-[4-(4,6-Dimethyl-pyridin-2-yl)-piperazin-1-yl]-phenyl}-2-(2-isopropyl-indolizin-3-yl)-2-oxo-acetamide]
> 10 µg/mL	Cc1cc(C)nc(N2CCN(c3ccc(NC(=O)C(=O)c4c(C(C)(C)C)cc5ccccn45)cc3)CC2)c1 [Example 62, 2-(2-tert-Butyl-indolizin-3-yl)-N-{4-[4-(4,6-dimethyl-pyridin-2-yl)-piperazin-1-yl]-phenyl}-2-oxo-acetamide]
> 10 µg/mL	Cc1cc(C)nc(N2CCN(c3ccc(NC(=O)C(=O)c4c(C5CCN(C)CC5)cc5ccccn45)cc3)CC2)c1 [Example 63, N-{4-[4-(4,6-Dimethyl-pyridin-2-yl)-piperazin-1-yl]-phenyl}-2-[2-(1-methyl-piperidin-4-yl)-indolizin-3-yl]-2-oxo-acetamide]
< 1 µg/mL	Cc1cc(C)nc(N(C)CCOc2ccc(NC(=O)C(=O)c3c(-c4ccccc4)cc4ccccn34)cc2)c1 [Example 64, N-(4-{2-[(4,6-Dimethyl-pyridin-2-yl)-methyl-amino]-ethoxy}-phenyl)-2-oxo-2-(2-phenyl-indolizin-3-yl)-acetamide]
< 1 µg/mL	Cc1cc(C)nc(OCCOc2ccc(NC(=O)C(=O)c3c(-c4ccccc4)cc4ccccn34)cc2)c1 [Example 65, N-{4-[2-(4,6-Dimethyl-pyridin-2-yloxy)-ethoxy]-phenyl}-2-oxo-2-(2-phenyl-indolizin-3-yl)-acetamide]
< 1 µg/mL	Cc1cc(C)nc(N2CCN(c3ccc(NC(=O)C(=O)c4c(C5CCOCC5)cc5ccccn45)cc3)CC2)c1 [Example 66, N-{4-[4-(4,6-Dimethyl-pyridin-2-yl)-piperazin-1-yl]-phenyl}-2-oxo-2-[2-(tetrahydro-pyran-4-yl)-indolizin-3-yl]-acetamide]
< 1 µg/mL	Cc1cc(C)nc(N(C)CCCN(C)c2ccc(NC(=O)C(=O)c3c(-c4ccccc4)cc4ccccn34)cc2)c1 [Example 67, N-[4-({3-[(4,6-dimethyl-pyridin-2-yl)-methyl-amino]-propyl}-methyl-amino)-phenyl]-2-oxo-2-(2-phenyl-indolizin-3-yl)-acetamide]
< 1 µg/mL	COCCN(C)c1ccc(N2CCN(c3ccc(NC(=O)C(=O)c4c(-c5ccccc5)cc5ccccn45)cc3)CC2)cn1 [Example 68, N-[4-(4-{6-[(2-Methoxy-ethyl)-methyl-amino]-pyridin-3-yl}-piperazin-1-yl)-phenyl]-2-oxo-2-(2-phenyl-indolizin-3-yl)-acetamide]
